Laboratory results published in patent US7807663B2, “Therapeutic agents for diabetes” (Ajinomoto Co., Inc., priority 2003, dated 2010).
≈ marks a conversion by molar mass, not a printed value.

Tests used:
adipose cells of rats = assay: Evaluation of the sugar transportation activity (2-[14C(U)]-deoxy-D-glucose incorporation); format: cell-based, Wistar rats; conditions: concentration with reinforcing effect of 50% of that of insulin (100 nM) = 100%; rat adipose cells, 30 min pre-culture at 37° C., 5 min uptake
Outline: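 Collagenase-isolated epididymal adipocytes from male Wistar rats in 2% BSA/KRH (pH 7.6) preincubated with compound 30 min at 37 °C, then pulsed with 2-[14C(U)]-deoxy-D-glucose (0.5 μCi/sample) 5 min; uptake stopped with 10 μM cytochalasin B, cells separated through dinonyl phthalate and counted by scintillation. EC50 (μg/mL) = concentration giving 50% of the 100 nM insulin effect.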

C57BL/6NCrj mice = assay: Combinational effect with insulin secretagogue (gliclazide) using normal mice (Example 1); format: in vivo; conditions: compound 100 mg/kg oral combined with gliclazide 3 mg/kg oral, compared with alone groups
Description: FIG. 1 is a chart showing a combinational effect of the compound (II) and gliclazide in Example 1 (average value±standard deviation, each group N=4).
The compound (II) of the Compound No. 96 in above Table 1, which is indicated by the following structural formula, was used for the investigation. The compound is that described as Example 129 in WO02/44180 and synthesized in accordance with the method described in the international publication.
(§1) The compound (II) (100 mg/kg) was orally administered to C57BL/6NCrj mice (11 week age, male) and soon after that, gliclazide (3 mg/kg) was orally administered. After administration, the blood was taken from their caudal veins over time to determine the blood glucose level. Area under the curve of blood glucose level changes until 70 minutes after the administration was set as an index and variations from a control group (Vehicle administered group) were compared.

KK-Ay mice = assay: Combinational effect with biguanide (metformin) using KK-Ay mice (Example 4); format: in vivo; conditions: combined with metformin, compared with alone groups, same experiment as Example 3
Description: (§2) The compound (III) (30 mg/kg) was orally administered to C57BL/KsJ-db/bdJcl mice (10 week age, male) and soon after that, metformin (100 mg/kg) was orally administered. 60 minutes after administration, the blood was taken from their caudal veins to determine the blood glucose level.
The same experiment is conducted as that of Example 3 except that the compounds of the Compound Nos. 6, 8, 62, 80, 81, 88, 91, 96, 105, 106, 129, 130, 131 and 132 in Tables 1 and 2 are used instead of the compound (III), and KK-Ay mice are used instead of db/bd mice.

C57BL/KsJ-db/bdJcl mice [1] = assay: Combinational effect with glitazone (pioglitazone) using db/db mice, oral glucose load (Examples 5 and 6); format: in vivo; conditions: single oral administration combined with pioglitazone 10 mg/kg/day oral for 10 days, compared with alone groups
Description: The oral glucose load experiments are conducted using C57BL/KsJ-db/bdJcl mice in the conditions with or without the oral administeration of pioglitazone (10 mg/kg/day) for 10 days and with or without a single oral administration of the compound (III).
The same experiment is conducted as that of Example 5 except that the compounds of the Compound Nos. 6, 8, 62, 80, 81, 88, 91, 96, 105, 106, 129, 130, 131 and 132 in Tables 1 and 2 are used instead of the compound (III).

C57BL/KsJ-db/bdJcl mice [2] = assay: Combinational effect with insulin using db/db mice (Examples 7 and 8); format: in vivo; conditions: combined with insulin 0.2 U/kg, compared with alone groups, same experiment as Example 3
Description: The compound (III) (30 mg/kg) was orally administered to C57BL/KsJ-db/bdJcl mice (10 week age, male) and soon after that, metformin (100 mg/kg) was orally administered. 60 minutes after administration, the blood was taken from their caudal veins to determine the blood glucose level. The same experiment is conducted as that of Example 3 except that insulin (0.2 U/kg) is used instead of metformin. […] The same experiment is conducted as that of Example 7 except that the compounds of the Compound Nos. 6, 8, 62, 80, 81, 88, 91, 96, 105, 106, 129, 130, 131 and 132 in Tables 1 and 2 are used instead of the compound (III).

GK rats = assay: Combinational effect with insulin secretagogue (gliclazide) using GK rats (Example 2); format: in vivo; conditions: combined with gliclazide, compared with alone groups, same experiment as Example 1
Description: as §1
The same experiment is conducted as that of Example 1 except that the compounds of the Compound Nos. 6, 8, 62, 80, 81, 88, 91, […], 105, 106, 129, 130, 131 and 132 in Tables 1 and 2 are used instead of the compound (II), and GK rats are used instead of normal mice.

C57BL/KsJ-db/bdJcl mice [3] = assay: Combinational effect with biguanide (metformin) using db/db mice (Example 3); format: in vivo; conditions: compound 30 mg/kg oral combined with metformin 100 mg/kg oral, compared with alone groups
Description: FIG. 2 is a chart showing a combinational effect of the compound (III) and metformin in Example 3 (average value+standard deviation, each group N=6).
The compound (III) of the Compound No. 98 in above Table 1, which is indicated by the following structural formula, was used for the investigation. The compound is that described as Example 131 in WO02/44180 and synthesized in accordance with the method described in the international publication.
as §2

EC50 (adipose cells of rats) [µg/mL] | Structure (SMILES) | hypoglycemic action (area under the curve of blood glucose level changes until 70 minutes, variation from vehicle group) (C57BL/6NCrj mice) | hypoglycemic action (blood glucose level) (KK-Ay mice) | hypoglycemic action (oral glucose load) (C57BL/KsJ-db/bdJcl mice [1]) | hypoglycemic action (blood glucose level) (C57BL/KsJ-db/bdJcl mice [2]) | hypoglycemic action (blood glucose level) (GK rats) | hypoglycemic action (blood glucose level 60 minutes after administration) (C57BL/KsJ-db/bdJcl mice [3])
5.4 (≈ 13.6 µM) | CCOCC(=O)N1[C@@H]2CCCC[C@H]2NC2=C(C(=O)NC2)[C@H]1c1ccccc1CC [Compound 96] | remarkable hypoglycemic action | remarkable hypoglycemic action | remarkable hypoglycemic action | remarkable hypoglycemic action | – | –
4 (≈ 11.3 µM) | CCc1ccccc1[C@@H]1C2=C(CNC2=O)N[C@@H]2CCCC[C@H]2N1C(C)=O [Compound 98] | – | – | remarkable hypoglycemic action | remarkable hypoglycemic action | remarkable hypoglycemic action | remarkable hypoglycemic action
